For eight compounds, GI50 and TGI results are on record in PubChem BioAssay (NCI).

Where “and” joins values, the source holds several entries; their conditions need not be identical. Equal entries are not always repeated.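 The compound was tested at five concentrations on cells cultured in 96-well plates, with a 48-hour exposure period. Abbreviation: GI50, concentration required for 50% inhibition of growth. TGI marks complete inhibition of growth.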 Where only a bound is given, the exact number is not on record here.

Some test systems named below: MDA-MB-435; SK-OV-3 ovarian; SK-MEL-5 melanoma; 786-0 renal; HCC-2998 colon; NCI-H23 lung; OVCAR-4 ovarian; OVCAR-5 ovarian; UO-31 renal; HT29 colon.
Holding throughout (assay): DTP human tumour cell line panel, 48 h

The GI50 is the concentration giving 50% growth inhibition. The term TGI denotes the concentration giving total growth inhibition. Turning to `O=C(Nc1ccc(Cl)cc1)c1ccc([N+](=O)[O-])o1`, the GI50 was 2.25 µM with MDA-MB-435; 2.64 µM with SK-OV-3 ovarian; 3.42 µM with SK-MEL-5 melanoma; 1.91 µM in the assay on 786-0 renal; 1.44 µM with HCC-2998 colon; 1.81 µM in the assay on NCI-H23 lung. The GI50 was 2.11 µM in the assay with OVCAR-4 ovarian, 2.37 µM with OVCAR-5 ovarian, 1.38 µM with UO-31 renal and 1.34 µM in the assay with HT29 colon. Further, the TGI in the assay on MDA-MB-435 was found to be 6.2 µM; in the assay with SK-OV-3 ovarian, 7.27 µM; in the assay with SK-MEL-5 melanoma, 13.2 µM; in the assay on 786-0 renal it was 4.05 µM; in the assay on HCC-2998 colon, 2.98 µM; with NCI-H23 lung, 4.54 µM. In addition, the total growth inhibition concentration (TGI) was 8.31 µM in the assay with OVCAR-4 ovarian, 5.41 µM with OVCAR-5 ovarian, 2.96 µM in the assay with UO-31 renal and 3.45 µM in the assay with HT29 colon.

As for `COc1ccc(/C(=N\O)c2cc(OC)c(OC)c(OC)c2)c(OC)c1N`, the GI50 in the assay with MDA-MB-435 was 0.653 µM; in the assay on SK-OV-3 ovarian it was 3.82 µM; in the assay with SK-MEL-5 melanoma, 5.32 µM; with 786-0 renal, 6.77 µM; in the assay with HCC-2998 colon it was 3.29 µM; in the assay with NCI-H23 lung, 6.45 µM. Besides, the figures for the GI50 with OVCAR-4 ovarian, in the assay with UO-31 renal and in the assay with HT29 colon were 12.4 µM, 8.14 µM and 3.4 µM, respectively. The TGI is 4.65 µM with MDA-MB-435; greater than 100 µM in the assay on SK-OV-3 ovarian; greater than 100 µM with SK-MEL-5 melanoma; greater than 100 µM with 786-0 renal; greater than 100 µM in the assay on HCC-2998 colon; greater than 100 µM in the assay with NCI-H23 lung. Also, the TGI with OVCAR-4 ovarian, in the assay on UO-31 renal and in the assay with HT29 colon was greater than 100 µM in each case.

In the case of `COc1cc(C(=O)/C=C/c2c(-c3ccc(F)cc3)nc3ncccn23)cc(OC)c1OC`, the GI50 in the assay with MDA-MB-435 was 2.36 µM; in the assay on SK-OV-3 ovarian, 2.64 µM; in the assay on 786-0 renal it was 2.76 µM; in the assay with HCC-2998 colon it was 1.77 µM; in the assay with NCI-H23 lung it was 1.58 µM; in the assay on OVCAR-4 ovarian, 2.93 µM. For the same compound, the GI50 in the assay on OVCAR-5 ovarian was 2.46 µM; in the assay with UO-31 renal, 0.73 µM; in the assay with HT29 colon, 2.52 µM. Also, the TGI in the assay on MDA-MB-435 was 96.6 µM; with SK-OV-3 ovarian, 6.7 µM; in the assay on 786-0 renal, 9.6 µM; in the assay with HCC-2998 colon, 3.42 µM; in the assay on NCI-H23 lung, 5.79 µM; in the assay with OVCAR-4 ovarian, greater than 100 µM. Moreover, the values for the TGI with OVCAR-5 ovarian, in the assay on UO-31 renal and in the assay on HT29 colon were 7.37 µM, greater than 100 µM and 6.25 µM, respectively.

Consider `CCN(CC)CCCNc1nc2ccccc2c2c(=O)c3cc(Cl)ccc3sc12`, for which the GI50 with MDA-MB-435 is 1.89 µM; in the assay with SK-MEL-5 melanoma, 3.11 µM; in the assay with 786-0 renal, 1.69 µM; in the assay on HCC-2998 colon it was 1.91 µM; with NCI-H23 lung, 3.69 µM; with OVCAR-4 ovarian it was 4.68 µM. Further, the GI50 with OVCAR-5 ovarian is 2.25 µM; in the assay with UO-31 renal, 1.79 µM; in the assay with HT29 colon, 1.9 µM. Moreover, the TGI in the assay with MDA-MB-435 amounted to 3.65 µM; in the assay with SK-MEL-5 melanoma, 11.3 µM; in the assay on 786-0 renal, 3.27 µM; with HCC-2998 colon, 4.01 µM; in the assay on NCI-H23 lung, 15.1 µM; in the assay on OVCAR-4 ovarian it was 22.7 µM. Further, the figures for the TGI in the assay on OVCAR-5 ovarian, in the assay on UO-31 renal and in the assay on HT29 colon were 6.29 µM, 9.97 µM and 3.98 µM, respectively.

`CCOCC(=O)N[C@H]1CCc2cc(OC(=O)COCC)c(OC)c(OC)c2-c2ccc(SC)c(=O)cc21`: the TGI is 0.00412 µM in the assay on MDA-MB-435; greater than 100 µM in the assay on 786-0 renal; 0.0549 µM and 0.0866 µM in the assay on HCC-2998 colon; greater than 100 µM with OVCAR-4 ovarian; greater than 100 µM in the assay with OVCAR-5 ovarian; greater than 100 µM in the assay on UO-31 renal. In addition, the TGI in the assay with HT29 colon was greater than 100 µM. The GI50 in the assay on SK-OV-3 ovarian is 0.0558 µM; in the assay on 786-0 renal, 0.0568 µM; in the assay on HCC-2998 colon it was 0.0211 µM; in the assay on NCI-H23 lung, 0.0337 µM; in the assay with OVCAR-5 ovarian, 0.0549 µM; with UO-31 renal, 0.68 µM.

For `O[C@@H]1CCCN1Cc1cc2cc3c(cc2c2cc(OCc4ccccc4)ccc12)OCO3`, the GI50 with MDA-MB-435 is 2 µM; with SK-OV-3 ovarian, 12.2 µM; in the assay on SK-MEL-5 melanoma, 1.78 µM; in the assay with 786-0 renal, 1.89 µM; with HCC-2998 colon, 1.85 µM; in the assay on OVCAR-4 ovarian it was 5.45 µM. The GI50 was 5.64 µM with OVCAR-5 ovarian, 11.2 µM in the assay with UO-31 renal and 1.94 µM with HT29 colon. The TGI in the assay on MDA-MB-435 came to 4.29 µM; in the assay with SK-OV-3 ovarian it was 25.7 µM; with SK-MEL-5 melanoma, 3.5 µM; with 786-0 renal, 3.69 µM; in the assay on HCC-2998 colon it was 3.76 µM; in the assay on OVCAR-4 ovarian, 20.3 µM. Further, the TGI in the assay on OVCAR-5 ovarian was found to be 21.2 µM; with UO-31 renal it was 25.2 µM; with HT29 colon, 5.09 µM.

Turning to `Cc1ccc(/C=C/C(=O)c2ccc(N)cc2)c(C)c1`, the GI50 is 4.01 µM in the assay with MDA-MB-435; 16.5 µM with SK-OV-3 ovarian; 9.47 µM in the assay on SK-MEL-5 melanoma; 1.88 µM with 786-0 renal; 15.6 µM in the assay on HCC-2998 colon; 2.19 µM in the assay with NCI-H23 lung. Further, the GI50 in the assay on OVCAR-4 ovarian is 2.09 µM; with OVCAR-5 ovarian, 7.32 µM; in the assay on UO-31 renal it was 1.83 µM. For the same compound, the TGI in the assay on MDA-MB-435 was 15.5 µM; in the assay on SK-OV-3 ovarian it was 31.3 µM; with SK-MEL-5 melanoma, 21.6 µM; in the assay with 786-0 renal, 3.45 µM; in the assay on HCC-2998 colon, 30.6 µM; with NCI-H23 lung, 5.21 µM. Besides, the TGI was 5 µM with OVCAR-4 ovarian, 27.9 µM in the assay on OVCAR-5 ovarian and 3.92 µM in the assay on UO-31 renal.

Turning to `CC(=O)c1c(O)ccc2c(C)c(C(=O)O)oc12`, the GI50 was greater than 100 µM in the assay on MDA-MB-435; greater than 100 µM in the assay on SK-MEL-5 melanoma; greater than 100 µM with 786-0 renal; 55.8 µM with HCC-2998 colon; greater than 100 µM with NCI-H23 lung; greater than 100 µM with OVCAR-4 ovarian. The GI50 with OVCAR-5 ovarian, in the assay with UO-31 renal and in the assay on HT29 colon was greater than 100 µM in each case. Besides, the TGI in the assay on MDA-MB-435, in the assay with SK-MEL-5 melanoma, with 786-0 renal, with HCC-2998 colon, in the assay with NCI-H23 lung and in the assay with OVCAR-4 ovarian was greater than 100 µM each time. Besides, the TGI with OVCAR-5 ovarian, with UO-31 renal and in the assay on HT29 colon was greater than 100 µM throughout.
